Assay [1] concerns the target T1, HA-hACKR3 (Homo sapiens, UniProt P25106).
T1 construct: expressed in transfected cells; host or cells: HEK293T (membranes, transient expression)
Description: [3H]VUF15485 radioligand binding assay. The conditions noted are these: 2 nM [3H]VUF15485, HEK293T membranes. The method, then: (§1) Membranes of HEK293T cells that transiently expressed the NLuc-hACKR3 or HA-hACKR3 were produced as previously described.[23] Briefly, 2 million HEK293T cells were seeded per […] and were transfected the following day using a DNA/PEI-mix containing 0.25 μg plasmid DNA encoding for the ACKR3, 4.75 μg pcDEF3 plasmid DNA and 30 μg linear PEI. Two days after transfection, cells were collected in PBS (137 mM NaCl, 2.57 mM KCl, 1.5 mM KH2PO4, 8 mM Na2HPO4) and pelleted by centrifugation. Cell pellets were resuspended in ice-cold membrane buffer (15 mM Tris, 0.3 mM EDTA, 2 mM MgCl2, pH 7.4 at 4 °C) and dounce-homogenized on ice by plunging the pestle 10 times with 1500 rpm. Cell homogenates were subsequently subjected to 2 freeze-thaw cycles using liquid nitrogen. Next, the cell homogenates were centrifuged at 40,000 g and pellets were resuspended in Tris-sucrose buffer (20 mM Tris, 250 mM sucrose, pH 7.4 at 4 °C). […]
Radioligand binding studies were performed as described earlier.[23] […] Filter-bound [^3H]VUF15485 was measured by adding 25 μL MicroScint-O per well to the dried GF/C-plate and radioactivity was quantified using the Wallac Microbeta counter (Perkin Elmer).
The sigmoidal concentration-dependent displacement of binding of the probes [^3H]VUF15485 and CXCL12-A647 by unlabeled ligands were analyzed using GraphPad Prism 8, by fitting a one-site binding model to the data, to determine the pIC50. Mean pIC50 values were determined by averaging fitted values from individual experiments. […] Similarly, sigmoidal, ligand-induced concentration-dependent activation or inhibition of the proximity between ACKR3 and the protein of interest was analyzed using GraphPad Prism 8, by fitting a 3-parameter concentration-response model to the data, to determine pEC50/pIC50 values. Mean pEC50 values and pIC50 values were determined by averaging fitted values from individual experiments. […]
The ACKR3 ligand VUF16840 was evaluated for its binding to hACKR3 in different competition binding assay formats (Fig. 1). […]

In assay [2] the target is T2, ACKR3 (Homo sapiens, UniProt P25106).
T2 construct: expressed in transfected cells; host or cells: HEK293T
Description: BRET GRK2 recruitment to ACKR3 in HEK293T cells. The conditions noted are these: for EC50: * VUF16840 as inverse agonist, read-out: GRK2 BRET pEC50 (converted). The class given is cell-based. The method, then:
For bioluminescence resonance energy transfer (BRET) experiments, several BRET acceptor constructs were used that consist of the pcDEF3 vector with either GRK2 (NCBI: NM_174710.2), β-arrestin1 (NCBI: NM_174243.3), or β-arrestin2 (NCBI: XM_005220181.4) fused at the C-terminus with a SpeI/NotI linker to mVenus (NCBI: KP666136.1), as previously described.[34]
For 1·10^6 HEK293T cells, a transfection mix consisting of 2 μg plasmid DNA, 12 μg linear PEI in a total volume of 200 μL 150 mM NaCl was made and thoroughly vortexed. The transfection mix was incubated for 15 minutes and consequently added to a cell suspension with a final concentration of 3·10^5 cells/mL. For functional studies this cell suspension was immediately transferred to a poly-L-lysine-coated white 96-well plate, with 3·10^4 cells per well. […] For BRET-based membrane localization experiments, the 2 μg plasmid DNA consisted of ACKR3-NL (0.05 μg), mVenus-CAAX (0.25 μg), and pcDEF3 vector DNA without insert (1.7 μg).
The sigmoidal concentration-dependent displacement of binding of the probes [^3H]VUF15485 and CXCL12-A647 by unlabeled ligands were analyzed using GraphPad Prism 8, by fitting a one-site binding model to the data, to determine the pIC50. Mean pIC50 values were determined by averaging fitted values from individual experiments. Graphs depict the pooled data of all experiments. Similarly, sigmoidal, ligand-induced concentration-dependent activation or inhibition of the proximity between ACKR3 and the protein of interest was analyzed using GraphPad Prism 8, by fitting a 3-parameter concentration-response model to the data, to determine pEC50/pIC50 values. Mean pEC50 values and pIC50 values were determined by averaging fitted values from individual experiments. […]
Fig. 5 Inhibition of both constitutive as well as agonist-induced ACKR3 activity by VUF16840. […] The resulting proximity between ACKR3 and β-arrestin1 (A, E), GRK2 (B, F), or Rab5a (C, G) was determined by bioluminescence resonance energy transfer. […]

In assay [3] the target is T3, NLuc-hACKR3 (Homo sapiens, UniProt P25106).
T3 construct: expressed in transfected cells; host or cells: HEK293T (membranes, transient expression)
Briefly: NanoBRET ligand binding assay (CXCL12-AF647 displacement). Particulars: 0.3 nM CXCL12-AF647, HEK293T membranes; read-out: IC50, displacement of CXCL12-A647 binding to NLuc-hACKR3. The method, then: as §1, with “rpm.” for “rpm. Cell homogenates were subsequently subjected to 2 freeze-thaw cycles using liquid nitrogen. Next, the cell homogenates were centrifuged at 40,000 g and pellets were resuspended in Tris-sucrose buffer (20 mM Tris, 250 mM sucrose, pH 7.4 at 4 °C).”
All dilutions were prepared in HBSS supplemented with 0.2% BSA. […] Total light intensity was measured at 460 nm wavelength with 80 nm bandwidth and separately for wavelengths ≥610 nm using the PHERAstar-FSX (BMG Labtech) with a dual emission filter. […]
The sigmoidal concentration-dependent displacement of binding of the probes [^3H]VUF15485 and CXCL12-A647 by unlabeled ligands were analyzed using GraphPad Prism 8, by fitting a one-site binding model to the data, to determine the pIC50. Mean pIC50 values were determined by averaging fitted values from individual experiments. […] Mean pEC50 values and pIC50 values were determined by averaging fitted values from individual experiments. […]
On the technique in general: In BRET a luciferase serves as donor, and the signal depends on an acceptor being close.

[4] abbreviates: read-out: IC50, displacement of [3H]VUF15485 binding from HA-hACKR3.

Molecules are shown by their SMILES. Read-outs that look alike come from different tables or passages of the source.

T1 sequence (P25106 whole entry): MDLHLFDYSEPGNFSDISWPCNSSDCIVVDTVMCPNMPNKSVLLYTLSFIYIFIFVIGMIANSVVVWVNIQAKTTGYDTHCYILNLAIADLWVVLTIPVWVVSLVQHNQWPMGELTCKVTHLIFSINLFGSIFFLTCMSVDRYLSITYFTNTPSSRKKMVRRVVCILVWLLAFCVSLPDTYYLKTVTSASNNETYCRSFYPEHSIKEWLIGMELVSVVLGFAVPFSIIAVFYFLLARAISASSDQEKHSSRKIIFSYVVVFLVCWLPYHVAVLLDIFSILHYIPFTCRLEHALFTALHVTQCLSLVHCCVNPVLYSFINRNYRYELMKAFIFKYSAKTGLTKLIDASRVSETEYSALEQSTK
T2 sequence (P25106 whole entry): as above
T3 sequence (P25106 whole entry): as above

Take `COc1cc(C(=O)N(CCC2CCCN2C)CC(C)=Cc2ccccc2F)cc(OC)c1OC` (centres unmarked) [VUF15485, reference compound]: the IC50 in assay [1] (setting [4]) stood at 20 nM; in assay [3], 28 nM. For the same molecule, in assay [2], the EC50 was 25.1 nM.
On to `COc1ccccc1CCNC(=O)C1CN(C2CCCCC2)CCC1NC(=O)c1cc(-c2ccc(F)cc2F)on1` (centres unmarked) [VUF16840], for which the IC50 in assay [1] (mean ± SD, read-out: pIC50, displacement of [3H]VUF15485 binding from HA-hACKR3 (converted)) is 0.794 nM; in assay [1] (setting [4]) it was 0.7 nM; in assay [2] (versus 100 nM VUF15485, read-out: GRK2 BRET, Inhibition by VUF16840 (pIC50) (converted)) it was 3.98 nM; in assay [3], 7 nM. In assay [2], the EC50 was 3.16 nM.

The values are drawn from PMC12799421, “Inhibition of constitutive activity of the atypical chemokine receptor 3 by the small-molecule inverse agonist VUF16840” (Molecular Pharmacology, 2025).
